# Source: PubChem BioAssay AID330 (DTP/NCI, 2004)
# Values joined by “and” are separate entries in the source; they are usually repeats but may differ in a detail not shown here. Equal values may be shown once. Toxic doses and inconclusive results are not listed.
# Tested on: P388 leukemia ip, CD2F1 mice, survival T/C
# Test: NCI In Vivo Anticancer Drug Screen. Data for tumor model P388 Leukemia (intraperitoneal) in CD2F1 (CDF1) mice
# Settings: endpoint: median survival time, higher = longer survival
# Summary of the method: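 Mice carrying the transplanted tumor received test compound or vehicle. Survival was recorded in each group, and the value is the treated-group measurement divided by that of the vehicle-treated control group.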
# [1] = dose: 50.0 mg/kg/injection, schedule: Q01DX009 (ip), vehicle: saline
# [2] = dose: 100.0 mg/kg/injection, schedule: Q01DX009 (ip), vehicle: saline
# [3] = dose: 200.0 mg/kg/injection, schedule: Q01DX009 (ip), vehicle: saline
# [4] = dose: 60.0 mg/kg/injection, schedule: Q01DX005 (ip), vehicle: saline with Tween-80
# [5] = dose: 120.0 mg/kg/injection, schedule: Q01DX005 (ip), vehicle: saline with Tween-80
# [6] = dose: 60.0 mg/kg/injection, schedule: Q01DX005 (ip), vehicle: Klucel (hydroxypropylcellulose) (HPC)
# [7] = dose: 120.0 mg/kg/injection, schedule: Q01DX005 (ip), vehicle: Klucel (hydroxypropylcellulose) (HPC)
# [8] = dose: 240.0 mg/kg/injection, schedule: Q01DX005 (ip), vehicle: Klucel (hydroxypropylcellulose) (HPC)
structure (smiles),measurement,setting,value
COc1ccc(OC)c(Cc2cnc3nc(N)nc(N)c3c2C)c1,T/C,"dose: 10.0 mg/kg/injection, schedule: Q01DX005 (ip), vehicle: dextrose",113 % of control
same,T/C,"dose: 10.0 mg/kg/injection, schedule: Q01DX005 (ip), vehicle: water",112 % of control
same,T/C,"dose: 25.0 mg/kg/injection, schedule: Q04DX003 (ip), vehicle: dextrose",115 % of control
same,T/C,"dose: 40.0 mg/kg/injection, schedule: Q01DX005 (ip), vehicle: dextrose",170 % of control
same,T/C,"dose: 100.0 mg/kg/injection, schedule: Q04DX003 (ip), vehicle: dextrose",166 % of control
NC(=O)Nc1cc(NC(N)=O)cc(N(CCCl)CCCl)c1,T/C,"dose: 17.8 mg/kg/injection, schedule: Q04DX003 (ip), vehicle: water",177 % of control
same,T/C,"dose: 20.0 mg/kg/injection, schedule: Q04DX003 (ip), vehicle: water",173 % of control
same,T/C,"dose: 26.6 mg/kg/injection, schedule: Q04DX003 (ip), vehicle: water",206 % of control
same,T/C,"dose: 40.0 mg/kg/injection, schedule: Q04DX003 (ip), vehicle: water",194 % of control and 215 % of control
CCn1c(O)c(N=NC(=S)NC)c2ccccc21,T/C,"dose: 9.37 mg/kg/injection, schedule: Q01DX009 (ip), vehicle: saline with Tween-80",101 % of control
same,T/C,"dose: 18.75 mg/kg/injection, schedule: Q01DX009 (ip), vehicle: saline with Tween-80",104 % of control
same,T/C,"dose: 37.5 mg/kg/injection, schedule: Q01DX009 (ip), vehicle: saline with Tween-80",93 % of control
CC(C)SC(=S)Nc1cc(C(F)(F)F)ccc1Cl,T/C,[1],100 % of control
same,T/C,[2],101 % of control
same,T/C,[3],99 % of control
Cc1cccc2c(=O)n(C(=O)c3ccccc3)c(N)nc12,T/C,"dose: 25.0 mg/kg/injection, schedule: Q01DX001 (ip), vehicle: saline with Tween-80",88 % of control
same,T/C,"dose: 50.0 mg/kg/injection, schedule: Q01DX001 (ip), vehicle: saline with Tween-80",90 % of control
same,T/C,"dose: 100.0 mg/kg/injection, schedule: Q01DX001 (ip), vehicle: saline with Tween-80",89 % of control
same,T/C,"dose: 200.0 mg/kg/injection, schedule: Q01DX001 (ip), vehicle: saline with Tween-80",93 % of control
CCCCCCCCCCCC[N+]1(CCCCCCCCCCCC)CCCC(C)C1 (stereo unspecified),T/C,"dose: 0.75 mg/kg/injection, schedule: Q01DX009 (ip), vehicle: Klucel (hydroxypropylcellulose) (HPC)",113 % of control
COc1cc2c(c(OC)c1OC)-c1ccc(OC)c(=O)cc1[C@@H](NC(=O)CCl)CC2,T/C,"dose: 0.06 mg/kg/injection, schedule: Q01DX009 (ip), vehicle: Klucel (hydroxypropylcellulose) (HPC)",114 % of control
same,T/C,"dose: 0.12 mg/kg/injection, schedule: Q01DX009 (ip), vehicle: saline with Tween-80",166 % of control
same,T/C,"dose: 0.13 mg/kg/injection, schedule: Q01DX009 (ip), vehicle: saline with Tween-80",156 % of control
same,T/C,"dose: 0.15 mg/kg/injection, schedule: Q01DX009 (ip), vehicle: saline",103 % of control
same,T/C,"dose: 0.25 mg/kg/injection, schedule: Q01DX009 (ip), vehicle: Klucel (hydroxypropylcellulose) (HPC)",115 % of control
same,T/C,"dose: 0.25 mg/kg/injection, schedule: Q01DX009 (ip), vehicle: saline with Tween-80",153 % of control and 173 % of control
same,T/C,"dose: 0.31 mg/kg/injection, schedule: Q01DX009 (ip), vehicle: saline",122 % of control
same,T/C,"dose: 0.5 mg/kg/injection, schedule: Q01DX009 (ip), vehicle: saline with Tween-80",93 % of control
same,T/C,"dose: 1.25 mg/kg/injection, schedule: Q01DX009 (ip), vehicle: saline",167 % of control
CC(C)(C)OC(=O)N1CCCC1C1=N/C(=C\c2ccccc2)C(=O)O1 (stereo unspecified),T/C,"dose: 50.0 mg/kg/injection, schedule: Q01DX005 (ip), vehicle: saline with Tween-80",102 % of control
same,T/C,"dose: 100.0 mg/kg/injection, schedule: Q01DX005 (ip), vehicle: saline with Tween-80",111 % of control
same,T/C,"dose: 200.0 mg/kg/injection, schedule: Q01DX005 (ip), vehicle: saline with Tween-80",105 % of control
CCN(Cc1cccc(S(=O)(=O)O)c1)c1ccc(C(=C2C=CC(=[N+](CC)Cc3cccc(S(=O)(=O)O)c3)C=C2)c2ccc(S(=O)(=O)O)cc2)cc1,T/C,"dose: 50.0 mg/kg/injection, schedule: Q01DX005 (ip), vehicle: saline",100 % of control
same,T/C,"dose: 100.0 mg/kg/injection, schedule: Q01DX005 (ip), vehicle: saline",99 % of control
same,T/C,"dose: 200.0 mg/kg/injection, schedule: Q01DX005 (ip), vehicle: saline",94 % of control
CCOC(=O)CNC(=O)c1cc2c(cn1)[nH]c1ccccc12,T/C,[4],93 % of control
same,T/C,[5],86 % of control
Clc1ccc(NCNC2Nc3ccccc3N2)cc1Cl,T/C,[4],94 % of control
same,T/C,[5],93 % of control
CCN(CC)CCCC(C)NC(C)CCCN(CC)CC (stereo unspecified),T/C,"dose: 3.13 mg/kg/injection, schedule: Q01DX009 (ip), vehicle: water",112 % of control
same,T/C,"dose: 6.25 mg/kg/injection, schedule: Q01DX009 (ip), vehicle: water",112 % of control
same,T/C,"dose: 12.5 mg/kg/injection, schedule: Q01DX009 (ip), vehicle: water",99 % of control
same,T/C,"dose: 25.0 mg/kg/injection, schedule: Q01DX009 (ip), vehicle: water",108 % of control
same,T/C,"dose: 50.0 mg/kg/injection, schedule: Q01DX009 (ip), vehicle: water",104 % of control
CN=C(NC)c1ccc(NC(=O)c2ccc(C(=O)Nc3ccc(C(=NC)NC)c(C)c3)cc2)cc1C,T/C,"dose: 6.25 mg/kg/injection, schedule: Q01DX005 (ip), vehicle: saline with Tween-80",111 % of control and 118 % of control
same,T/C,"dose: 12.5 mg/kg/injection, schedule: Q01DX005 (ip), vehicle: saline with Tween-80",119 % of control
same,T/C,"dose: 25.0 mg/kg/injection, schedule: Q01DX005 (ip), vehicle: saline with Tween-80",164 % of control and 173 % of control
CN1C(=O)CC([Se]c2ccccc2)C1=O (stereo unspecified),T/C,"dose: 6.25 mg/kg/injection, schedule: Q04DX003 (ip), vehicle: Klucel (hydroxypropylcellulose) (HPC)",107 % of control and 97 % of control
same,T/C,"dose: 12.5 mg/kg/injection, schedule: Q04DX003 (ip), vehicle: Klucel (hydroxypropylcellulose) (HPC)",103 % of control and 104 % of control
same,T/C,"dose: 25.0 mg/kg/injection, schedule: Q04DX003 (ip), vehicle: Klucel (hydroxypropylcellulose) (HPC)",99 % of control and 105 % of control
same,T/C,"dose: 50.0 mg/kg/injection, schedule: Q04DX003 (ip), vehicle: Klucel (hydroxypropylcellulose) (HPC)",100 % of control
same,T/C,"dose: 100.0 mg/kg/injection, schedule: Q04DX003 (ip), vehicle: Klucel (hydroxypropylcellulose) (HPC)",105 % of control
CNC(=O)C(O)c1c(-c2ccccc2)c(-c2ccccc2)c2n1CCC2 (stereo unspecified),T/C,[6],96 % of control
same,T/C,[7],89 % of control
same,T/C,[8],86 % of control
CCCCN(CCO)CC(O)Cn1cnc2c(N)ncnc21 (stereo unspecified) (tested in a mixture with another compound),T/C,"dose: 60.0 mg/kg/injection, schedule: Q01DX005 (ip), vehicle: saline",94 % of control
same,T/C,"dose: 120.0 mg/kg/injection, schedule: Q01DX005 (ip), vehicle: saline",97 % of control
same,T/C,"dose: 240.0 mg/kg/injection, schedule: Q01DX005 (ip), vehicle: saline",94 % of control
CCN1CC2(C)CCC(OC)C34C1[C@H](C(=O)[C@@H]23)[C@]1(O)CC[C@H]2C[C@H]4[C@H]1C(=O)O2 (stereo partly specified),T/C,"dose: 1.0 mg/kg/injection, schedule: Q01DX009 (ip), vehicle: Klucel (hydroxypropylcellulose) (HPC)",95 % of control
same,T/C,"dose: 2.0 mg/kg/injection, schedule: Q01DX009 (ip), vehicle: Klucel (hydroxypropylcellulose) (HPC)",96 % of control
same,T/C,"dose: 4.0 mg/kg/injection, schedule: Q01DX009 (ip), vehicle: Klucel (hydroxypropylcellulose) (HPC)",98 % of control
O=c1[nH]ncc(=S)[nH]1,T/C,"dose: 25.0 mg/kg/injection, schedule: Q01DX009 (ip), vehicle: suspension in saline",90 % of control
same,T/C,"dose: 50.0 mg/kg/injection, schedule: Q01DX009 (ip), vehicle: suspension in saline",103 % of control
same,T/C,"dose: 100.0 mg/kg/injection, schedule: Q01DX009 (ip), vehicle: suspension in saline",87 % of control
CCC1(c2ccccc2)OCC(C2CCCCN2)O1 (stereo unspecified),T/C,"dose: 50.0 mg/kg/injection, schedule: Q01DX009 (ip), vehicle: Klucel (hydroxypropylcellulose) (HPC)",95 % of control
same,T/C,"dose: 100.0 mg/kg/injection, schedule: Q01DX009 (ip), vehicle: Klucel (hydroxypropylcellulose) (HPC)",95 % of control
CCCCCCCCN1C(=O)c2ccccc2C1=O,T/C,"dose: 25.0 mg/kg/injection, schedule: Q01DX009 (ip), vehicle: other",109 % of control
same,T/C,"dose: 50.0 mg/kg/injection, schedule: Q01DX009 (ip), vehicle: other",103 % of control
same,T/C,"dose: 100.0 mg/kg/injection, schedule: Q01DX009 (ip), vehicle: other",109 % of control
same,T/C,"dose: 200.0 mg/kg/injection, schedule: Q01DX009 (ip), vehicle: other",98 % of control
C[Si](C)(C)c1cc[c]([Sn]([CH3])([CH3])[CH3])cc1,T/C,[1],105 % of control
same,T/C,[2],101 % of control
same,T/C,[3],93 % of control
Cc1ccc2nc(Nc3nc(C)cc(C)n3)[nH]c2c1,T/C,[6],103 % of control
same,T/C,[7],100 % of control
same,T/C,[8],97 % of control
